According to publication PMC3583015 (Drug metabolism reviews, 2013):
Where a chain is given by its changes, count along the chain named.

What was measured:
PXR LBD = conditions: ref Xue et al., 2007; cited from earlier work
Q272H PXR = biological target: T1, Q272H PXR (Homo sapiens, UniProt O75469, Q272H); assay: yeast two-hybrid screen of PXR mutants; format: cell-based; conditions: Q272H mutation at the surface AF-2 site
T1 sequence (O75469 1-434 Q272H): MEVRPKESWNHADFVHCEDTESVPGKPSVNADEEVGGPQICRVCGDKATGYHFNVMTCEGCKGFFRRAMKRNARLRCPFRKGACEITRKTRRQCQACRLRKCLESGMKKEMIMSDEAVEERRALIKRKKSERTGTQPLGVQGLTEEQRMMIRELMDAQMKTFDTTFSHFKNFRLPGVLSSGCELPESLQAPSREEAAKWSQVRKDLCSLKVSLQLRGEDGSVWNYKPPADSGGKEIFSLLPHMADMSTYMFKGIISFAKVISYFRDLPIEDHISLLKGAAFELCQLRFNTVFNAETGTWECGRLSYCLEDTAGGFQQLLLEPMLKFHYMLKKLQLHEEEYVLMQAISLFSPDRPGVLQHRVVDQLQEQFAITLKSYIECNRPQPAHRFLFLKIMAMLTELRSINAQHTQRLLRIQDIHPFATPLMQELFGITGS

[1] = test system: constitutively active pocket-filling mutants of PXR; assay: antagonism of constitutively active pocket-filling mutants of PXR; format: cell-based; conditions: double and triple mutant forms
PXR [2] = biological target: T2, PXR (Homo sapiens, UniProt O75469); conditions: sustained for at least 48–72 hours; ref Fuchs et al., 2012; cited from earlier work
T2 sequence (O75469 1-434): T1 sequence (O75469 1-434 Q272H) with H272Q

T248E/K277Q form of PXR = conditions: ref Wang et al., 2007; cited from earlier work
PXR [3] = conditions: ref Poulton et al., 2012; cited from earlier work

O=S(=O)(c1ccccc1)N(CC(F)(F)F)c1ccc(C(O)(C(F)(F)F)C(F)(F)F)cc1 [T1317, T0901317]
Kd (PXR LBD): 11 nM

CC(=O)N1CCN(c2ccc(OCC3COC(Cn4ccnc4)(c4ccc(Cl)cc4Cl)O3)cc2)CC1 (stereo not drawn) [ketoconazole]
sensitivity of Q272H PXR to the antagonist (Q272H PXR): insensitive | antagonism of constitutively active pocket-filling PXR mutants [1]: still susceptible to antagonism | concentration needed to antagonize PXR activation in vivo (PXR [2]): > 10 µM | antagonism of double-mutant T248E/K277Q PXR (T248E/K277Q form of PXR): not susceptible to antagonism

C[S+]([O-])CCCCN=C=S (stereo not drawn) [sulphoraphane, sulforaphane]
effect in a humanized PXR mouse model (PXR [3]): absence of effect
